# Patent publication US11530220B2, “Substituted imidazo[1,5-a]pyrazines and [1,2,4]triazolo[4,3-a]pyrazines for the modulation of AhR” (IDEAYA BIOSCIENCES, INC., priority 2018, dated 2022)
# Like-named read-outs stand apart in the source and are kept apart here.
# Target: T1, hAhR (Homo sapiens, UniProt P35869)
# T1 construct: Stably integrated DRE-luciferase cell lines were generated by transducing the both cell lines with Cignal XRE luciferase reporter (Qiagen) lentiviral particles; endogenous in cells; host or cells: HEPG2 (human hepatoma) with stably integrated XRE/DRE-luciferase reporter
# T1 sequence (P35869 11-848): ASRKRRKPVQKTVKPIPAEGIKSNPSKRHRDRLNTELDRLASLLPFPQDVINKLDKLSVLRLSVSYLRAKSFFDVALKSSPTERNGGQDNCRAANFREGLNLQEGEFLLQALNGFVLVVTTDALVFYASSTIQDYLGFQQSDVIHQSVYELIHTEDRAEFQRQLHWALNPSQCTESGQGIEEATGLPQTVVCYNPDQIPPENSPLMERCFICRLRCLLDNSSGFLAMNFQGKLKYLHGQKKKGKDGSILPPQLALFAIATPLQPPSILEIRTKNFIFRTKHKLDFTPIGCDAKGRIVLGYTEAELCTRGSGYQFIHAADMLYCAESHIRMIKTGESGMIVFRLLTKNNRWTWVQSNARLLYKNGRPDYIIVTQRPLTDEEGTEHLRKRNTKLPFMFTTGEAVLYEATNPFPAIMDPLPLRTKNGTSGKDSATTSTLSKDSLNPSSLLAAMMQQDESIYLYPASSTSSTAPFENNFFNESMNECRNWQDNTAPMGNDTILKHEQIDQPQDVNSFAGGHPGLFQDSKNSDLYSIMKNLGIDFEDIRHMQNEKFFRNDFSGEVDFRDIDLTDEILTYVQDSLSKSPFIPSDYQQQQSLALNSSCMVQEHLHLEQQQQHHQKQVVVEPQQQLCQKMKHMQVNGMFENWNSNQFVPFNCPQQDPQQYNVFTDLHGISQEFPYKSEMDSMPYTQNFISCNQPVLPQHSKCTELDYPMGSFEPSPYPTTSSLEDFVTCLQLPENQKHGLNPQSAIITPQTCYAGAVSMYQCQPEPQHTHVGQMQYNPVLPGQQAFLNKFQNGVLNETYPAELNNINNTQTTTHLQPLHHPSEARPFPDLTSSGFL
# Assay: DRE-luciferase transcriptional assay, antagonist mode, in HEPG2 DRE-Luc cells stimulated with TCDD
# Assay type: cell-based
# Conditions: for IC50: relative IC50, read-out: IC50 hAhR (antagonist mode); for Emax: read-out: HEPG2 % Max Inhibition
# Method: HEPG2 and HEPA1C1C7 cells were maintained in MEM and αMEM without nucleosides supplemented with 10% heat inactivated FBS respectively. Stably integrated DRE-luciferase cell lines were generated by transducing the both cell lines with Cignal XRE luciferase reporter (Qiagen) lentiviral particles according to the manufacturer protocol. For both cell lines stably integrated reporter cell lines were selected for the presence of 2 μg/mL puromycin. Following selection of stably integrated cell line pools, clonal cell lines were isolated by limiting dilution in 96-well plates. Transcriptional assays were performed by seeding 100 μL of cells at a density of 250,000 or 100,000 cells/mL, for HEPG2 and HEPA1C1C7 DRE-Luc cells respectively, into 96-well cell culture plates in OptiMEM supplemented with 0.5% heat inactivated FBS and allowed to attach overnight. For antagonist assays, the compounds were added in a semi-log dose response using a D300e Digital Dispenser (Tecan) followed normalization with vehicle (DMSO). Immediately following compound addition […] of 2,3,7,8-Tetrachlorodibenzo-p-dioxin (TCDD) was added to the cells to a final concentration of 3 nM or 0.3 nM for the HEPG2 and HEPA1C1C7 DRE-Luc cells respectively. Following 24 h incubation the medium was removed and the cells were lysed in 25 μL of Reporter Lysis Buffer (Promega). Firefly luciferase activity was measured immediately following the addition of 50 μL Luciferase Assay Reagent (Promega). The percent maximal activity for each point was determined using the following equation: 100−(RLUsample−RLUvehicle−TCDD)/(RLUvehicle+TCDD RLUvehicle−TCDD)*100. The relative IC50, defined as the compound concentration required to reduce the TCDD induced response between the top and bottom plateau of each individual dose response curve by half, for each compound was determined using Prism 7 (GraphPad Software).
# [1] = HEPG2 DRE-Luc cells, 3 nM TCDD, 24 h incubation
SMILES,IC50 [1],"Emax (HepG2, 24 h)",Emax [1]
"CC(C)c1cnc2c(NCCn3cnc4ccccc43)nc(-c3cncc(F)c3)cn12 [Example 30, (2-benzimidazolylethyl)[6-(5-fluoro(3-pyridyl))-3-isopropyl(4-hydroimidazo[1,2-a]pyrazin-8-yl)]amine]",1000 to 10000 nM,94%,–
"Cc1nccn1-c1cn2c(C(C)C)cnc2c(NCc2ccc(C(N)=O)cc2)n1 [Example 31, 4-({[3-isopropyl-6-(2-methylimidazolyl)-4-hydroimidazo[1,2-a]pyrazin-8-yl]amino}methyl)benzamide]",1000 to 10000 nM,–,31%
"Cc1nccn1-c1cn2c(C(C)C)cnc2c(OCCc2c[nH]c3ccccc23)n1 [Example 32, 8-(2-indol-3-ylethoxy)-3-(methylethyl)-6-(2-methylimidazolyl)-4-hydroimidazo[1,2-a]pyrazine]",200 to 500 nM,–,100%
